A short description of series [1]: Pilot study, LD50 of NIC formulated in DMA/PEG 400. Set-up: species or system nude mice. Particulars: nude, mouse, in vivo.
A further series relates to HCT-116 tumors. Put plainly: Tumor inhibition in HCT-116 cell xenograft model. The format is in vivo, male nude mice. As to conditions: i.v. every third day for two weeks, NIC 5 mg/kg, CP—NIC 20 mg/kg NIC-equivalent, n=8. How it is done:
Prior to in vivo implantation, HCT116 cells were washed twice in Minimum Essential Media (MEM) (51200-038; Invitrogen; Carlsbad, Calif.). HCT116 cells were implanted in the right flank of male nude mice by subcutaneous injection of 1-2×10^6 cells in 50 μL. All animals were treated in accordance with National Institute of Health Guide for the Care and Use of Laboratory Animals under protocols approved by the Duke University Institutional Animal Care and Use Committee.
(§1) Controls or drugs were administered by tail vein infusion (50 μL/min) of 500 μL. […] Tumor dimensions and BW were measured 3-4 times a week, and the tumor volume was calculated according to Volume [mm^3]=length×width×depth×½.
(§2) Mice were monitored for BW loss, and euthanized upon exceeding 15% loss in BW or if their tumors grew to a volume greater than 1000 mm3. The maximum tolerated dose (MTD) was determined in mice with tumors. Cumulative survival curves were compared using Kaplan-Meier analysis, and the Sidak test, Tukey Test and Wilcoxon test were calculated using GraphPad Prism 6 software.
Body-weight loss was also measured throughout the treatment of free NIC and CP—NIC conjugate. All treatments were tolerated for the period of the study (FIG. 11). […] It was hypothesized that the mechanism of action of NIC released from nanoparticles in this study is the same as free NIC as previously characterized.

The nature of a further series: in vivo. Particulars: iv. How it is done: Blood samples were obtained 0.5 h prior to dosing and at 0.08, 0.17, 0.33, 0.67, 1.5, 4, 8, 12, 24 hours after drug administration (n=4 per time point).
Blood samples were obtained at 0.5 h prior to the dosing and at 0.08, 0.17, 0.33, 0.67, 1.5, 4, 8, 12, and 24 h after drug administration.

For series [2], the system named is tumor cell lines from multiple tumor types. Particulars: breast, lung, prostate, ovary, blood, pancreas, colon tumor cell lines; read-out: IC50 range, inhibition of proliferation of tumor cell lines; cited from earlier work.
Series [3] in a line: Dose escalation / tolerability in mice bearing subcutaneous HCT116 tumors. Particulars: male, nude, mouse, in vivo, intravenous, 5 mg/kg BW; mice with tumors, 3 days/week for 2 weeks, tail vein infusion; read-out: maximum tolerated dose. The procedure: as §1, §2
For series [4] the following is noted: free drug solution at 200 mg/kg BW; cited from earlier work.
Series [5] relates to HCT116 human colon carcinoma cells. As to the kind of experiment: In vitro cell proliferation (MTS assay). Particulars: HCT-116, read-out: IC50, concentration of NIC (or NIC equivalent) to inhibit proliferation of cells by 50%, HCT116, 72 hours of exposure. The format is cell-based.
Experimental: HCT116 human colon carcinoma cells were purchased from American Type Culture Collection (Manassas, Va., USA) and maintained in McCoy's 5A medium supplemented with 10% fetal bovine serum (FBS, Atlanta Biologicals, Lawrenceville, Ga., USA), 200 U/ml penicillin, and 50 ng/ml streptomycin (Invitrogen, Grand island, NY, USA). Cells were grown at 37° C. in 5% CO2. The cells were plated at 5,000 cells per well into 96 well plates and treated with compounds (n=3) for 48 hours, at which point the cell proliferation was measured using the colorimetric MTS assay (Promega, Madison, Wis., USA). Values were normalized as a percentage of DMSO treated cells. The dose response data were fit with sigmoidal dose-response using Graphpad Prism.
Series [6] has as its system Wnt/β-catenin signaling in HCT-116 cells. Put plainly: Western blot of Wnt signaling (cytosolic β-catenin, c-myc, cyclin D1). The format is cell-based, human. Particulars: HCT116, western blotting. The procedure:
Western blots were performed following a procedure similar to that reported previously (Osada et al., Cancer Res., 2011, 71, 4172-4182). […] After treatment, the cytosolic fraction was isolated as previously described (Chen et al., Biochemistry, 2009, 48, 10267-10274). Immunoblot was used to detect the 3-catenin, c-myc and cyclin D1 protein levels in cytosol, with β-actin immunoblots used for loading control.
Wnt signaling activity was quantified as cytosolic β-catenin level by Western blot.

These results are taken from patent US20190083638A1, “NICLOSAMIDE-CONJUGATED POLYPEPTIDE NANOPARTICLES” (priority 2017, published 2019).

What is called LD50 is the dose at which mortality reaches 50%. Higher therefore signals a less toxic substance. In general, MRT inf refers to a mean duration of stay, worked out from the concentration-time curve. What is called MRT last is the average time that molecules of a dose stay in the body. As a reminder, the Tmax is the time from dosing to the highest level. For orientation: half-life means the time in which the quantity being followed falls by half. Low values mean rapid decline, high ones slow decline. Broadly, the Cmax is the maximum level reached in the sampled fluid or tissue.

`O=C(Nc1ccc([N+](=O)[O-])cc1Cl)c1cc(Cl)ccc1O` [NIC, Niclosamide] showed an LD50 in series [1] of 5 mg/kg. Further, the median survival time with HCT-116 tumors (Kaplan-Meier) was 16 days. For the same compound, in the series on HCT-116 tumors (ten days after start of treatment), the mean tumor volume is listed as 661 mm3. Besides, in the series “in vivo” (CD1, mouse), the “% AUC-inf extrapolated (AUC-last/AUC-inf) * 100” value is given as 0.33 ± 0.45%, the MRT inf was 54 ± 28.8 min, the MRT last is 54 ± 26.4 min and the Tmax was determined as 12 ± 10.2 min. Besides, the half-life in “in vivo” (CD1, mouse) is 60 ± 13.2 min. The compound further displayed a Cmax in the series “in vivo” (CD1, mouse, 128 mg/kg) of 6200 ± 4230 ng/mL. Also, in the series “in vivo” (mouse), the “Vss (=CL × MRT; overall distrib. Volume at steay state)” value is 0.7 ± 0.28 L (per kg BW). For the same compound, the IC50 in series [2] was 130 to 4000 nM. Moreover, the MTD at 2 weeks in series [3] amounted to 5 mg/kg. For the same compound, the “time plasma levels of NIC were above the IC50 for Wnt inhibition” value in series [4] was “less than 1 h”. For the same compound, the IC50 in series [5] was 850 nM. The “levels of Wnt target proteins c-myc and cyclin D1” value in series [6] is “similarly reduced”.
